This is an account of results in patent US10441568B2, “Nitroxide radicals for the treatment of diseases of the respiratory tract” (priority 2015, dated 2019).

For data set [1] the following is noted: previously established; cited from earlier work.
The next data set has as its system IL-13. The data set can be described thus: IL-13 level in OVA asthma model. Format: in vivo, BALB/c mice. Particulars: for IL-13 level: lung tissue (table title). The protocol: (§1) All experimental procedures were carried out in accordance with the NIH Guidelines for the Care and Use of Laboratory Animals. Specific pathogen-free (SPF) male BALB/c mice (6-7 weeks of age, 18-22 grams), routinely screened serologically for relevant respiratory pathogens, were maintained in an animal housing facility for 1 week before use and given access to food and water ad libitum. Animals were randomly assigned to the indicated experimental groups, and sensitized with two intraperitoneal (IP) injections (20 μg ovalbumin (OVA) emulsified in 2 mg aluminum hydroxide (an adjuvant) in 200 μl phosphate buffer saline (PBS), pH 7.4), on days 1 and 10.
(§2) After another week, the animals were challenged by exposure to ovalbumin (OVA) aerosol (1%, w/v, in PBS) for 30 minutes each day on days 17, 18 and 19, in order to elicit an inflammatory reaction in the lungs characterized by airway hyper-responsiveness (AHR), an influx of inflammatory cells (particularly eosinophils), and increased pulmonary levels of various cytokines and transforming growth factors, protein nitration and lipid peroxidation.
(§3) Bronchoalveolar lavage (BAL) fluid (also referred to herein as “BALf”) and bronchial submucosal inflammation are characteristic features of asthma. Mice were euthanized with an overdose of 50 mg/kg pentobarbital and ice-cold phosphate buffer saline (PBS) (0.6 ml) was instilled into the lungs. BAL fluid was obtained by three aspirations via tracheal cannulation, centrifuged, and the supernatant collected and stored at −70° C. Cell pellets were re-suspended in PBS and 100 μl aliquots placed onto slides and centrifuged (200 g, 4° C., 10 minutes) in a cytospin machine. Induction of oxidative stress was evaluated using a 2′,7′-dichlorofluorescein fluorescence assay, and total IgE, IgG2a, panel of cytokines, transforming growth factors, collagen, protein nitration and lipid peroxidation were measured using commercial kits according to the manufacturer's recommendations. A Sircol™ collagen assay kit was obtained from Biocolor Life Sciences Assays, a protein nitration assay kit was obtained from Abcam, and other assay kits were obtained from PeproTech Asia.
(§4) The efficacy of oral administration of 3-CP (1 weight percent in chow) during the sensitization period and/or challenge period was then compared to IP injection (˜300 mg/kg, 0.5 hour before the OVA challenge) or intranasal instillation (˜150 mg/kg, 0.5 hour before the OVA and 6 hours later) of 3-CP, as well as to dexamethasone treatment (1 mg/kg, 3 daily IP injections, 0.5 hour prior to the challenge with OVA aerosol).
(§5) In order to assess the effect of 3-CP on inflammatory signaling pathways, […] to procedures described hereinabove, upon oral, intranasal or IP administration of 3-CP.

Data set [2] concerns ovalbumin-induced murine model of asthma. The data set can be described thus: Inflammatory cell counts in BAL fluid in OVA asthma model. Format: in vivo, BALB/c mice. The protocol:
as §1, §2
The features of allergic inflammation typically reached their peak a day or two after the final exposure. Mice were then subjected to one of the following treatments: (i) sham-sensitization plus challenge with PBS; (ii) positive control-sensitization plus challenge with OVA; (iii) sensitization plus challenge with OVA and various indicated treatments (e.g., with nitroxide or dexamethasone), including different modes (oral, IP, intranasal, inhalation), time windows (sensitization stage, challenge stage, both stages and after the last challenge), and doses of nitroxide administration.
as §3
Control and experimental groups contained 10 mice each. The effects of the nitroxides were investigated by feeding the mice ad libitum a diet of nitroxide-containing chow (1 weight percent) during both ovalbumin (OVA)-induced sensitization and challenging periods (days −2-19), during the sensitization period (days −2-11) or challenge period (days 13-19). Nitroxide-containing chow were prepared by dissolving 500 grams chow in a minimum volume of water containing 5 grams nitroxide and 5 grams commercial chicken soup powder, preparing the chow and drying it at 37° C. (animals were reluctant to eat nitroxide-containing chow until chicken soup powder was added).
3-CP was also administered using 3 daily intraperitoneal (IP) injections (200 μl, 0.15 M, ˜300 mg/kg) 0.5 hour prior to the challenge with OVA aerosol, or by nasal instillation (50 μl, 0.3 M, ˜150 mg/kg) twice a day 0.5 hour prior to the challenge with OVA aerosol and 6 hours later without exceeding its maximally tolerated dose, which has been previously established to be 300-500 mg/kg. Both 3-CP and TPL were non-toxic when administered orally or via IP injection to untreated OVA-challenged mice for 22 days. […]

In a further data set the test system is TGF-β1. The data set can be described thus: TGF-β1 level in OVA asthma model. Format: in vivo, BALB/c mice. As to the method:
as §1, §2, §3, §4, §5

Data set [3] relates to bleomycin-induced pulmonary fibrosis. Kind of data set: Inflammatory cell counts in BAL fluid, bleomycin pulmonary fibrosis model. Format: in vivo, mice. The note with it: 3-CP 150 mg/kg daily intranasal, 14 days, FIG. 18. As to the method: Bronchoalveolar lavage (BAL) fluid (also referred to herein as “BALf”) and bronchial submucosal inflammation are characteristic features of asthma. Mice were euthanized with an overdose of 50 mg/kg pentobarbital and ice-cold phosphate buffer saline (PBS) (0.6 ml) was instilled into the lungs. BAL fluid was obtained by three aspirations via tracheal cannulation, centrifuged, and the supernatant collected and stored at −70° C. Cell pellets were re-suspended in PBS and 100 μl aliquots placed onto slides and centrifuged (200 g, 4° C., 10 minutes) in a cytospin machine. Induction of oxidative stress was evaluated using a 2′,7′-dichlorofluorescein fluorescence assay, and total IgE, IgG2a, panel of cytokines, transforming growth factors, collagen, protein nitration and lipid peroxidation were measured using commercial kits according to the manufacturer's recommendations. A Sircol™ collagen assay kit was obtained from Biocolor Life Sciences Assays, a protein nitration assay kit was obtained from Abcam, and other assay kits were obtained from PeproTech Asia. […]
The effect of 3-CP on bleomycin-induced inflammation was evaluated by determining lung resistance, total inflammatory cell count, and TGF-β1 levels, according to procedures described hereinabove.

The mark [4] stands for this setting: OVA IP-C: 3-CP intraperitoneal during challenge.
Setting [5] is: OVA oral-C: 3-CP oral during challenge.
The mark [6] stands for this setting: OVA oral-S&C: 3-CP oral during sensitization and challenge.
The mark [7] stands for this setting: OVA oral-S: 3-CP oral during sensitization.
Where [8] appears, read: oral administration vs IP injection.
The mark [9] stands for this setting: oral, 1 weight percent in chow, FIG. 4.

“Also recorded” adds a separate entry of the source.

`CC1(C)CC(C(N)=O)C(C)(C)N1[O]` (centres unmarked) [3-CP, 3-Carbamoyl-2,2,5,5-tetramethyl-pyrrolidin-1-oxyl]: in data set [1], the maximally tolerated dose was 300 to 500 mg/kg. Further, the “reducing IL-13 level, oral 3-CP compared with intranasal 3-CP and IP dexamethasone” value with IL-13 (FIG. 7D and Table 1) is “more effective than intranasal instillation of 3-CP and IP injection of dexamethasone”. Besides, the IL-13 level turned out to be 1.99 ng/mg with IL-13 (OVA IN-C: 3-CP intranasal during challenge); 1.38 ng/mg with IL-13 (setting [4]); 2.01 ng/mg in the data set on IL-13 (setting [5]); 1.67 ng/mg with IL-13 (setting [6]); 2.20 ng/mg in the data set on IL-13 (setting [7]). In addition, the “effect on OVA-induced increase in the level of IL-13” value in the data set on IL-13 (lung tissue, FIG. 7D and Table 1) is “inhibited”. Further, the “modulating IL-13 level, oral compared with IP 3-CP” value with IL-13 (setting [8]) is “consistently more effective than IP injection of 3-CP”. In addition, in data set [2] (oral 1 weight percent in chow during sensitization and challenge periods, FIG. 5), the “levels of inflammatory cells, oral 3-CP in both periods compared with other regimens” value is recorded as “more effective than IP injection or intranasal instillation of 3-CP, oral administration of 3-CP during the sensitization period or challenge period alone, or treatment with dexamethasone; also recorded: more effective than treatment with dexamethasone”. Besides, the “BAL inflammatory cell/eosinophil count attenuation, 3-CP compared with TPL” value in data set [2] (setting [9]) is “considerably more effective than TPL”. In addition, the “effect on OVA-induced increase in total inflammatory cell and eosinophil counts in BAL fluid” value in data set [2] (setting [9]) is “attenuated the increase in total inflammatory cell counts and eosinophil counts”. In addition, in the data set with TGF-β1 (FIG. 7E and Table 1), the “effect on OVA-induced increase in the level of TGF-β1” value is given as “inhibited”. Further, the “reducing TGF-β1 level, oral 3-CP compared with intranasal 3-CP and IP dexamethasone” value in the data set on TGF-β1 (FIG. 7E and Table 1) was “more effective than intranasal instillation of 3-CP and IP injection of dexamethasone”. For the same molecule, the TGF-β1 level in the data set with TGF-β1 (setting [4]) came out at 0.88 ± 0.05 ng/mg; in the data set with TGF-β1 (setting [5]), 0.72 ± 0.08 ng/mg; with TGF-β1 (setting [6]), 0.73 ± 0.07 ng/mg; in the data set with TGF-β1 (setting [7]), 0.76 ± 0.02 ng/mg. Besides, the “modulating TGF-β1 level, oral compared with IP 3-CP” value with TGF-β1 (setting [8]) is listed as “consistently more effective than IP injection of 3-CP”. The “effect on bleomycin-induced increase in inflammatory cell counts in BAL fluid” value in data set [3] is listed as “significantly reduced”.
